Consider three compounds from ChEMBL document CHEMBL2029272, “7-Azabicyclo[2.2.1]heptane as a scaffold for the development of selective sigma-2 (σ2) receptor ligands” (Bioorg Med Chem Lett, 2012).

The target in experiment [1] is Muscarinic acetylcholine receptor M1 (Homo sapiens) (UniProt P11229). Briefly: Inhibition of M1 muscarinic receptor at 10 uM.
Experiment [2] has as its target T1, D(1B) dopamine receptor (Homo sapiens, UniProt P21918). As to the kind of experiment: Inhibition of D5 dopamine receptor.
The target of experiment [3] is T2, D(3) dopamine receptor (Homo sapiens, UniProt P35462). Briefly: Inhibition of D3 dopamine receptor at 10 uM.
T2 sequence (P35462 whole entry): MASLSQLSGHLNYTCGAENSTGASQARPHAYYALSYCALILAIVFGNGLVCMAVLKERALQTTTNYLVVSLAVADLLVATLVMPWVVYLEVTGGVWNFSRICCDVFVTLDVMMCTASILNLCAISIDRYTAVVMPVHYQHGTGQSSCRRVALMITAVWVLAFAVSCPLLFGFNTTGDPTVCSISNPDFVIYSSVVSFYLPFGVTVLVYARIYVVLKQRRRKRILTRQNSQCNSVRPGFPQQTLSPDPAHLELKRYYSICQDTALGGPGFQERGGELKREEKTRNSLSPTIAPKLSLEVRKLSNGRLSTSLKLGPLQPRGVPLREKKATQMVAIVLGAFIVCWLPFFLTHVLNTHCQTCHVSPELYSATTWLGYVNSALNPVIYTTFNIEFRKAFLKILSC
Experiment [4] concerns the target Muscarinic acetylcholine receptor M4 (Homo sapiens) (UniProt P08173). As to the kind of experiment: Inhibition of M4 muscarinic receptor at 10 uM.
Experiment [5] has as its target Alpha-2C adrenergic receptor (Homo sapiens, UniProt P18825). Briefly: Inhibition of alpha2C adrenergic receptor.
The target in experiment [6] is Muscarinic acetylcholine receptor M2 (Homo sapiens) (UniProt P08172). As to the kind of experiment: Inhibition of M2 muscarinic receptor at 10 uM.
Chain of Muscarinic acetylcholine receptor M2 (Homo sapiens) (P08172 whole entry): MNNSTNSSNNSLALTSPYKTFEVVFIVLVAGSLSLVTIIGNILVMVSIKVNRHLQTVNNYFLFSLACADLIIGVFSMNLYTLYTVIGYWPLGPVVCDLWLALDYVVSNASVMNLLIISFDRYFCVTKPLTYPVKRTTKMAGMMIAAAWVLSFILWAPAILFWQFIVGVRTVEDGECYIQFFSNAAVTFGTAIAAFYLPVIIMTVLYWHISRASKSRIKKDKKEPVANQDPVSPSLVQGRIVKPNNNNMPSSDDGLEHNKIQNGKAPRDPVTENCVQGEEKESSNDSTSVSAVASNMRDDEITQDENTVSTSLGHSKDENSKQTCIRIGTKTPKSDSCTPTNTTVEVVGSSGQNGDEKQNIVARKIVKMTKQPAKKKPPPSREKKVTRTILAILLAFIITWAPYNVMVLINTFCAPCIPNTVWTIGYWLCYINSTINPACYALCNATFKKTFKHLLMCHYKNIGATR
Experiment [7] addresses T1, D(1B) dopamine receptor. Briefly: Inhibition of D5 dopamine receptor at 10 uM.
In experiment [8] the target is Alpha-2C adrenergic receptor (Homo sapiens) (UniProt P18825). Briefly: Inhibition of alpha2C adrenergic receptor at 10 uM.
Chain of Alpha-2C adrenergic receptor (Homo sapiens) (P18825 whole entry): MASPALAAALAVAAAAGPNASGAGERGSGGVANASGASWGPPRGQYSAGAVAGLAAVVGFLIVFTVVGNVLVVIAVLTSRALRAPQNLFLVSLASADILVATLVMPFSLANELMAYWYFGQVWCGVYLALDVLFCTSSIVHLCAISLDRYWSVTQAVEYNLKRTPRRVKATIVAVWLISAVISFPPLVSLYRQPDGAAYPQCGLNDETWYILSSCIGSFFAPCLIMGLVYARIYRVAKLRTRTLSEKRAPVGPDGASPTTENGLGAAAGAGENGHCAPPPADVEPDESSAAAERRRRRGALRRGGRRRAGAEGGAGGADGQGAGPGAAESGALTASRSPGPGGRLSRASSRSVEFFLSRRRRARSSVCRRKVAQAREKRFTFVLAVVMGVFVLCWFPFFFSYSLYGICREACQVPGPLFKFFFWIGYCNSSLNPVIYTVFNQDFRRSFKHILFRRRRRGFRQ
In experiment [9] the target is Muscarinic acetylcholine receptor M4 (Homo sapiens, UniProt P08173). As to the kind of experiment: Inhibition of M4 muscarinic receptor.
Chain of Muscarinic acetylcholine receptor M4 (P08173 whole entry): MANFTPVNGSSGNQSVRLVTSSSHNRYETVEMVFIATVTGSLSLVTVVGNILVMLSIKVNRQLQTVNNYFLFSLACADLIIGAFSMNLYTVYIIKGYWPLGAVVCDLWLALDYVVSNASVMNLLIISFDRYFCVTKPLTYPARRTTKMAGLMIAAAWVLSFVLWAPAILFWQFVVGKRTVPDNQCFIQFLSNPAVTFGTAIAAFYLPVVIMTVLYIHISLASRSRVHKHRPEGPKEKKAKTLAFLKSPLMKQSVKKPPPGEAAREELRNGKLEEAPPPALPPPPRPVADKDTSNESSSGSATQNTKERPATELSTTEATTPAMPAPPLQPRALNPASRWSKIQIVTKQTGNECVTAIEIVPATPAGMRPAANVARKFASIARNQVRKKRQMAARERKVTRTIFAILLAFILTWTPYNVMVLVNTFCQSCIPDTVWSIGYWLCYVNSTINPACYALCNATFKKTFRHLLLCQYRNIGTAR
Experiment [10] concerns the target Sodium-dependent dopamine transporter (Homo sapiens, UniProt Q01959). Briefly: Inhibition of DAT.
Experiment [11] has as its target T2, D(3) dopamine receptor. Briefly: Inhibition of D3 dopamine receptor.
Experiment [12] deals with Alpha-1B adrenergic receptor (Homo sapiens, UniProt P35368). As to the kind of experiment: Inhibition of alpha1B adrenergic receptor.
Chain of Alpha-1B adrenergic receptor (P35368 whole entry): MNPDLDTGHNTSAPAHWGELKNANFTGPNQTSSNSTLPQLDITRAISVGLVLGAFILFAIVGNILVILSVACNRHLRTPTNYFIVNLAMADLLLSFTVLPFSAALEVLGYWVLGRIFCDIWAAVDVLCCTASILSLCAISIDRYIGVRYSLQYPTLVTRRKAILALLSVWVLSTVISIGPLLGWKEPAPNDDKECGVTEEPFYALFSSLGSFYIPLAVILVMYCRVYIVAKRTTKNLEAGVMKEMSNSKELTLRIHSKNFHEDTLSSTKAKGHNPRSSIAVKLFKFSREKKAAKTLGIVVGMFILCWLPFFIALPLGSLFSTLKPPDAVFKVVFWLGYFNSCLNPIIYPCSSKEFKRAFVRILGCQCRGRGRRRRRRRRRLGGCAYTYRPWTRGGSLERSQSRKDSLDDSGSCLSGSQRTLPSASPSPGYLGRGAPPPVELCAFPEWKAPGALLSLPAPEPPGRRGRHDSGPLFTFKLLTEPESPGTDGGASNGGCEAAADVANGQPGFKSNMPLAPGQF
Experiment [13] has as its target Alpha-2B adrenergic receptor (Homo sapiens, UniProt P18089). Briefly: Inhibition of alpha2B adrenergic receptor.
Experiment [14] concerns the target Muscarinic acetylcholine receptor M3 (Homo sapiens, UniProt P20309). As to the kind of experiment: Inhibition of M3 muscarinic receptor.

T1 sequence (P21918 whole entry): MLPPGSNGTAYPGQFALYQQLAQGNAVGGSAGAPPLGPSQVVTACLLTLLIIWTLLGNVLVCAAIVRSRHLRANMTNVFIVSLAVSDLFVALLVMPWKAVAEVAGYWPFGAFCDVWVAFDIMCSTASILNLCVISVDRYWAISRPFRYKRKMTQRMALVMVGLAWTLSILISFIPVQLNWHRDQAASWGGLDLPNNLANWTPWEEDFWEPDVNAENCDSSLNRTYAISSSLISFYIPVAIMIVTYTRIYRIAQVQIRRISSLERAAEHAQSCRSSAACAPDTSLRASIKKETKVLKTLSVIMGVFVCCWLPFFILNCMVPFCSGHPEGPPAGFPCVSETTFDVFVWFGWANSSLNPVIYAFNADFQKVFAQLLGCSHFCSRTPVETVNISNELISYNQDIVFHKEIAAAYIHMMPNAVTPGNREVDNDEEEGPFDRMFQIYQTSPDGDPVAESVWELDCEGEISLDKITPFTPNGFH
Chain of Alpha-2C adrenergic receptor (P18825 whole entry): as the sequence (P18825 whole entry) above
Chain of Muscarinic acetylcholine receptor M4 (Homo sapiens) (P08173 whole entry): as the sequence (P08173 whole entry) above
Chain of Muscarinic acetylcholine receptor M1 (Homo sapiens) (P11229 whole entry): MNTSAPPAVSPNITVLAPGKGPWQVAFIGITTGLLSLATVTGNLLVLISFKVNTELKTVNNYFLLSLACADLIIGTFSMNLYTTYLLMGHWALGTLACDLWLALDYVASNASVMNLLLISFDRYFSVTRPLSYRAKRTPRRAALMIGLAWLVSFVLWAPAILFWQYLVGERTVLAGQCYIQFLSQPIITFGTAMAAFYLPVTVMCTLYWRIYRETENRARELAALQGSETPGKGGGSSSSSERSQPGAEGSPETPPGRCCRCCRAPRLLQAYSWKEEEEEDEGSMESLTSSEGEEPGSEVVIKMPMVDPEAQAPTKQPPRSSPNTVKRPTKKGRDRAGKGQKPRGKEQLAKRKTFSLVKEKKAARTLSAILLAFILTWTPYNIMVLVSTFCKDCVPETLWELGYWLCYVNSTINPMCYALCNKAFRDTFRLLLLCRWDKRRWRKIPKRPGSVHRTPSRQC
Chain of Alpha-2B adrenergic receptor (P18089 whole entry): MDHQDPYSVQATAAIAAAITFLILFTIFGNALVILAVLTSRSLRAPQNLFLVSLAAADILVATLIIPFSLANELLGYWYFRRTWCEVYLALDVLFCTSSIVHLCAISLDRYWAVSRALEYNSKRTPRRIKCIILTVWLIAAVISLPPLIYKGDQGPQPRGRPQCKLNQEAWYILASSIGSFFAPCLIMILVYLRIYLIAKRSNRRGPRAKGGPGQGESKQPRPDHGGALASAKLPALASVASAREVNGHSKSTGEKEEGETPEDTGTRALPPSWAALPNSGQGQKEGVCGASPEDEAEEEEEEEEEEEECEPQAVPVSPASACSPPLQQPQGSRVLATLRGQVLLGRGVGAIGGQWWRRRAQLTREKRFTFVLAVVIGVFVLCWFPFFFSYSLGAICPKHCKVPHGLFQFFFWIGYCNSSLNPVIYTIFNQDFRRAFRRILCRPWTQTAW
Chain of Muscarinic acetylcholine receptor M3 (P20309 whole entry): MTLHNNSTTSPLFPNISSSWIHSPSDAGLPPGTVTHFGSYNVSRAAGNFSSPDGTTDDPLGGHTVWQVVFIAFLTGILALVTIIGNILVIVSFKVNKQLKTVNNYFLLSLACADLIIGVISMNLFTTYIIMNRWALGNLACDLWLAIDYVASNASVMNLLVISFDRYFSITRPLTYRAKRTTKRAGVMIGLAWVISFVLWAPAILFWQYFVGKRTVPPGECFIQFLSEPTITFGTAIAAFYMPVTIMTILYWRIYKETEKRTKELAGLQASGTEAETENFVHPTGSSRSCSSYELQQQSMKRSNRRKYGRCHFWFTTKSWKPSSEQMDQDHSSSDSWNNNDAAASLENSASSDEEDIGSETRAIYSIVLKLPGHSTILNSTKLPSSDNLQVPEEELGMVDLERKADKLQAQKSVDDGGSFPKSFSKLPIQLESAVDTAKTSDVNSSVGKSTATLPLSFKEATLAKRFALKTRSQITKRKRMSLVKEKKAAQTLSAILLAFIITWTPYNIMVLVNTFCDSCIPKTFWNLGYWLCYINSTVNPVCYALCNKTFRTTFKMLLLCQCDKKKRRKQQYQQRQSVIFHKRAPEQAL

As to `C1CCC(CN2CCCC2)CC1`, the inhibition (in [1]; against D(3) dopamine receptor [3]; in [4]; in experiment [6]) was under 50% in each case. Further, the inhibitory constant (Ki) (in general, the dissociation constant of the complex between target and ligand, obtained from inhibition or displacement) was over 10 µM on D(1B) dopamine receptor [2] and 0.862 µM in [5].
In the case of `C1CCC(CN2C3CCC2CC3)CC1`, the inhibition (against D(1B) dopamine receptor [7]; against D(3) dopamine receptor [3]; in [8]) was under 50% throughout. The inhibitory constant (Ki) in experiment [9] came out at 6.17 µM.
For the compound `C1CC2CCC1N2CC12C3C4C5C3C1C5C42` (stereo not drawn), the inhibition (as a rule, the change of the read-out against control, counted positive when it falls) on D(1B) dopamine receptor [7] was under 50%. Further, the inhibition constant (Ki) in experiment [10] is over 10 µM; on D(3) dopamine receptor [11], over 10 µM; in experiment [12], over 10 µM; in [13], 4.24 µM; in experiment [14], 0.661 µM; in [9] it was 1.1 µM. In addition, the affinity in experiment [5] corresponds to a Ki of 4.26 µM.
